These results are taken from ChEMBL document CHEMBL5150077, “Identification of TUL01101: A Novel Potent and Selective JAK1 Inhibitor for the Treatment of Rheumatoid Arthritis” (J Med Chem, 2022).

A short description of series [1]: Plasma protein binding in mouse assessed as unbound fraction at 2 uM incubated for 4 hrs by LC/MS/MS based balanced dialysis method.
The target in series [2] is 5'-AMP-activated protein kinase catalytic subunit alpha-1 (Homo sapiens) (UniProt Q13131). In words: Inhibition of human AMPKalpha1 assessed as residual activity at 30 uM relative to control.
Sequence of 5'-AMP-activated protein kinase catalytic subunit alpha-1 (Homo sapiens) (Q13131 whole entry, looked up): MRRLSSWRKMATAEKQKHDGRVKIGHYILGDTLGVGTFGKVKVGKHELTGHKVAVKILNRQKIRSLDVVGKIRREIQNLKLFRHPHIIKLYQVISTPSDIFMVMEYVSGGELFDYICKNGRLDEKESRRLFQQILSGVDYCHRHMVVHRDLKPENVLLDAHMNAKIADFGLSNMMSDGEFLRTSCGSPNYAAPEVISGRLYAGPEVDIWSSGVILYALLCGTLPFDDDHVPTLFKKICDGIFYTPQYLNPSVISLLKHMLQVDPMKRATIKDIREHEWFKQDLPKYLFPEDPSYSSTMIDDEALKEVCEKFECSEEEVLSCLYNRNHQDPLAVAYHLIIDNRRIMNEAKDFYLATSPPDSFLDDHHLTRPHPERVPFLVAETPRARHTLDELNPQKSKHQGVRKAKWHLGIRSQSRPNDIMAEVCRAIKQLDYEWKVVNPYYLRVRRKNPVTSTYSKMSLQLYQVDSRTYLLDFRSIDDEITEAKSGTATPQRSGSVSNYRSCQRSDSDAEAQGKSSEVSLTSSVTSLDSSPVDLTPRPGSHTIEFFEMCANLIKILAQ
The target of series [3] is Insulin-like growth factor 1 receptor (Homo sapiens) (UniProt P08069). In words: Inhibition of human IGF1R assessed as residual activity at 30 uM relative to control.
The subject of series [4] is Mus musculus. In words: Antiarthritic activity in collagen-induced rheumatoid arthritis DBA/1 mouse model assessed as reduction in clinical score AUC at 15 mg/kg, po BID administered for 14 days starting from 7 days before immunization to 21 days after immunization and measured on day 41 post immunization. The following applies: time 14.0 day. Format: functional, organism-based.

Series [5] can be described thus: Metabolic stability in mouse hepatocytes assessed as intrinsic clearance at 1 uM incubated for 90 mins by LC/MS/MS analysis. Format: ADME, cell-based, Hepatocyte.
The nature of series [6]: Microsomal stability in mouse liver microsomes assessed as intrinsic clearance at 1 uM incubated for 60 mins in presence of NADPH regenerating system by LC-MS/MS analysis. In kind it is ADME, Microsome. The following applies: read-out: CLH.
Series [7] addresses Glycogen synthase kinase-3 beta (Homo sapiens) (UniProt P49841). Kind of series: Inhibition of human GSK3beta assessed as residual activity at 30 uM relative to control.
Series [8] in a line: Plasma protein binding in human assessed as unbound fraction at 2 uM incubated for 4 hrs by LC/MS/MS based balanced dialysis method.
Series [9] is described as follows: Elimination half life in C57BL/6 mouse at 15 mg/kg, po measured for 24 hrs by LC/MS/MS analysis. In kind it is ADME, organism-based. The following applies: in vivo, read-out: beta t1/2 (converted).
Series [10] has as its system Mus musculus. Kind of series: Antiarthritic activity in collagen-induced rheumatoid arthritis DBA/1 mouse model assessed as recovery of body weight at 15 mg/kg, po BID administered for 14 days starting from 7 days before immunization to 21 days after immunization and measured on day 22 post immunization. The following applies: time 14.0 day. In kind it is functional, organism-based.

A short description of series [11]: Metabolic stability in rat hepatocytes assessed as intrinsic clearance at 1 uM incubated for 90 mins by LC/MS/MS analysis. Format: ADME, cell-based, Hepatocyte.
The target of series [12] is Interleukin-1 receptor-associated kinase 4 (Homo sapiens) (UniProt Q9NWZ3). Kind of series: Inhibition of human IRAK4 assessed as residual activity at 30 uM relative to control.
Sequence of Interleukin-1 receptor-associated kinase 4 (Homo sapiens) (Q9NWZ3 whole entry): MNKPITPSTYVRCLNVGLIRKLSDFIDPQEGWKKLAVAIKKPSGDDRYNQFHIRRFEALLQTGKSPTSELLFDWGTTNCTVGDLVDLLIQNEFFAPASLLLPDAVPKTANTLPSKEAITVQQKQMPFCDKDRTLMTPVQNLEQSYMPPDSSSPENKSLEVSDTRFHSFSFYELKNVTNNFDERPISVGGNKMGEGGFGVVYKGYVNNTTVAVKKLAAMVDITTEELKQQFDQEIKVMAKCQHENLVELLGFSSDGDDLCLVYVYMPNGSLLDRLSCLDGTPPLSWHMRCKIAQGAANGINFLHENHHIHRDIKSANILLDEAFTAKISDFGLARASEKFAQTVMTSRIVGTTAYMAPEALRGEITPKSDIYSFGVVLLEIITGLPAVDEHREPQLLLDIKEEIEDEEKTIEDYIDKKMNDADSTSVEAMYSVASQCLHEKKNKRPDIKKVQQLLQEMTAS
Series [13] in a line: Clearance in beagle dog at 0.2 mg/kg, iv measured for 24 hrs by LC-MS/MS analysis. In kind it is ADME, organism-based, Canis lupus familiaris. The following applies: in vivo.
A short description of series [14]: Volume of distribution at steady state in C57BL/6 mouse at 15 mg/kg, po or 2 mg/kg, iv measured for 24 hrs by LC/MS/MS analysis. Format: ADME, organism-based. The following applies: in vivo.
Series [15] addresses Mitogen-activated protein kinase 8 (Homo sapiens) (UniProt P45983). In words: Inhibition of human JNK1-alpha1 assessed as residual activity at 30 uM relative to control.
Series [16] in a line: in vivo. The following applies: C57BL/6, mouse, po, 15 mg/kg.
The target in series [17] is Non-receptor tyrosine-protein kinase TYK2 (Homo sapiens, UniProt P29597). Kind of series: Inhibition of recombinant human TYK2 using GGMEDIYFEFMGGKKK as substrate incubated for 40 mins in presence of Mg/ATP mixture by [gamma p33]-ATP based scintillation counting method.
Sequence of Non-receptor tyrosine-protein kinase TYK2 (P29597 whole entry): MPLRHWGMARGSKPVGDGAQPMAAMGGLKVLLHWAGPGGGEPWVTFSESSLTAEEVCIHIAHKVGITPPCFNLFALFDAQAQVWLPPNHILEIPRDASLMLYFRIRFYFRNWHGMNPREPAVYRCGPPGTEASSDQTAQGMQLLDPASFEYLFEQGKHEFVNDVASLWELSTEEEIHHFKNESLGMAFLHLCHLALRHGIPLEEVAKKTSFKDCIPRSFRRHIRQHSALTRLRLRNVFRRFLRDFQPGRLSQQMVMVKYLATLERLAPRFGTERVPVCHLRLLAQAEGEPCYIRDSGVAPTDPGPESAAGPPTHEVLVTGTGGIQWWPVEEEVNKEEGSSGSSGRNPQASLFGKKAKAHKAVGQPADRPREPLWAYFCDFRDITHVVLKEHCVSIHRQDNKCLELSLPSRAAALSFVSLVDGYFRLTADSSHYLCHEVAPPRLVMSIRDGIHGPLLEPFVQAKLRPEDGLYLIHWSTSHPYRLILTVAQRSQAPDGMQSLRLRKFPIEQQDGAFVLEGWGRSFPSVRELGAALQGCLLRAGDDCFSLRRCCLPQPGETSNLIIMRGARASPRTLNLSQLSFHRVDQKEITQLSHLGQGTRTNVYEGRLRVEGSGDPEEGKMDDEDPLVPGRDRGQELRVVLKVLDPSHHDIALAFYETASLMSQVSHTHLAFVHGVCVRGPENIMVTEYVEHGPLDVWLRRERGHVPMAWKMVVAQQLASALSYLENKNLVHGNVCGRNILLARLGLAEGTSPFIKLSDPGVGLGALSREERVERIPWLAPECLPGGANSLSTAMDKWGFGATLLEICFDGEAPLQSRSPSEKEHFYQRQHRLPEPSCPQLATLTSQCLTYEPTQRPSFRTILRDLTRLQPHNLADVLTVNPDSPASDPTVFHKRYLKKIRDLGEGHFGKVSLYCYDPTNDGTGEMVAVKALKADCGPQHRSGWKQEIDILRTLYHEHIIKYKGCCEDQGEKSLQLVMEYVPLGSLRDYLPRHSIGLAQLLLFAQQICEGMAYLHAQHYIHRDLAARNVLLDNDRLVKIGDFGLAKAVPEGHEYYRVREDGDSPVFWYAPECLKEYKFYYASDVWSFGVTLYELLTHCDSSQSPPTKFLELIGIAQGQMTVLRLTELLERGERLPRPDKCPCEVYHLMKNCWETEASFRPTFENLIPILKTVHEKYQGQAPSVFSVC
A short description of series [18]: AUC in C57BL/6 mouse at 15 mg/kg, po measured for 24 hrs by LC/MS/MS analysis. The following applies: in vivo. In kind it is ADME, organism-based. Further details: dose 15 mg/kg, time 24 hrs, route po.
For series [19], the target named is Tyrosine-protein kinase JAK2 (Homo sapiens, UniProt O60674). Kind of series: Inhibition of recombinant human JAK2 using KTFCGTPEYLAPEVRREPRILSEEEQEMFRDFDYIADWC as substrate incubated for 40 mins in presence of Mg/ATP mixture by [gamma p33]-ATP based scintillation counting method.
Sequence of Tyrosine-protein kinase JAK2 (O60674 whole entry): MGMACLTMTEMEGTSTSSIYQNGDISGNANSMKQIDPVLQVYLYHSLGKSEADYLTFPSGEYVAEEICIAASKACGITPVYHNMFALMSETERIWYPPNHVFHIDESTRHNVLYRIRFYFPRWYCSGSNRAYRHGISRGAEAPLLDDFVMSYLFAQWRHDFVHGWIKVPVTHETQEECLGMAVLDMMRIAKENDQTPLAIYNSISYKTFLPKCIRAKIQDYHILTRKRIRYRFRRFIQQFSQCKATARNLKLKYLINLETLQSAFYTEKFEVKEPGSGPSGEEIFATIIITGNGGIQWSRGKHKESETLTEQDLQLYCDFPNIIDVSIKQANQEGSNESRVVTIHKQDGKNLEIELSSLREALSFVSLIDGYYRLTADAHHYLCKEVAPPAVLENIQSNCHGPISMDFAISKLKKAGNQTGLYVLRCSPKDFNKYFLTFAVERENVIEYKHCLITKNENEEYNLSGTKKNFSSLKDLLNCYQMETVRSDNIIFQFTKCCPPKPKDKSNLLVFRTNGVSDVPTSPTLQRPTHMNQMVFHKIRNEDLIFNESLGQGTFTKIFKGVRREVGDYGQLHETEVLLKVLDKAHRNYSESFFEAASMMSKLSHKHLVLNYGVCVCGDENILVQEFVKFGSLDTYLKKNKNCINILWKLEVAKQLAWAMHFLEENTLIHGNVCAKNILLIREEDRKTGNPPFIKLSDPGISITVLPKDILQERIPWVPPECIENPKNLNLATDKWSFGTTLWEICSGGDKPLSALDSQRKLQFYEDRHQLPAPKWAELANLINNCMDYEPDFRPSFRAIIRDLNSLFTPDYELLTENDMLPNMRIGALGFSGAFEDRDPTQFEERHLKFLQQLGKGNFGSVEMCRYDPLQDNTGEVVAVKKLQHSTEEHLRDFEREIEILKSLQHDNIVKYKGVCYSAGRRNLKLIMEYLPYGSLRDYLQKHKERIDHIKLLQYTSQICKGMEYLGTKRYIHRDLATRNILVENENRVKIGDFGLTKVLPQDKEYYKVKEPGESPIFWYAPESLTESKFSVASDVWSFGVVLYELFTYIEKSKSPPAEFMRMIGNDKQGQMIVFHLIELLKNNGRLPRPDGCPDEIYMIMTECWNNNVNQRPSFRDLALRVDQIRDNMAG
The species named for series [20] is Homo sapiens. In words: Selectivity index, ratio of IC50 for inhibition of recombinant human JAK2 to IC50 for inhibition of recombinant human JAK1.
A short description of series [21]: in vivo. The following applies: C57BL/6, mouse, po, 15 mg/kg. This is another data set of the same source.
For series [22], the species on record is Homo sapiens. Kind of series: Selectivity index, ratio of IC50 for inhibition of recombinant human TYK2 to IC50 for inhibition of recombinant human JAK1.
The target of series [23] is T1, Cytochrome P450 1A2 (Homo sapiens, UniProt P05177).
T1 sequence (P05177 whole entry): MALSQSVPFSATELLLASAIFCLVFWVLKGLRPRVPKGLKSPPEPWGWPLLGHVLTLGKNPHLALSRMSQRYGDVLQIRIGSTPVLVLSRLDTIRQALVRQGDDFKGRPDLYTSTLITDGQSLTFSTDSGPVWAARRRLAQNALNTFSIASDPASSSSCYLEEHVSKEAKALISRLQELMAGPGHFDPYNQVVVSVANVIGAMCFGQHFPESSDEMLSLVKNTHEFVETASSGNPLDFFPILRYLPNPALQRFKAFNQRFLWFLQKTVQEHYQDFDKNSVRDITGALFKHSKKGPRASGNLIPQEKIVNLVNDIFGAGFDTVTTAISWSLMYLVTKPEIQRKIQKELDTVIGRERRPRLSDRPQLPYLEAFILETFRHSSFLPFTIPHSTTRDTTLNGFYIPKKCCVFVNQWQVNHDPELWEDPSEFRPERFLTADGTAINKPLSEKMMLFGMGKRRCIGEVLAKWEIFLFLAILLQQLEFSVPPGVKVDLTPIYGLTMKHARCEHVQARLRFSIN
Kind of series: Inhibition of CYP1A2 in human liver microsomes incubated in presence NADPH by LC-MS/MS analysis.

In series [24] the target is Cytochrome P450 2C9 (Homo sapiens, UniProt P11712). In words: Inhibition of CYP2C9 in human liver microsomes incubated in presence NADPH by LC-MS/MS analysis.
Sequence of Cytochrome P450 2C9 (P11712 whole entry): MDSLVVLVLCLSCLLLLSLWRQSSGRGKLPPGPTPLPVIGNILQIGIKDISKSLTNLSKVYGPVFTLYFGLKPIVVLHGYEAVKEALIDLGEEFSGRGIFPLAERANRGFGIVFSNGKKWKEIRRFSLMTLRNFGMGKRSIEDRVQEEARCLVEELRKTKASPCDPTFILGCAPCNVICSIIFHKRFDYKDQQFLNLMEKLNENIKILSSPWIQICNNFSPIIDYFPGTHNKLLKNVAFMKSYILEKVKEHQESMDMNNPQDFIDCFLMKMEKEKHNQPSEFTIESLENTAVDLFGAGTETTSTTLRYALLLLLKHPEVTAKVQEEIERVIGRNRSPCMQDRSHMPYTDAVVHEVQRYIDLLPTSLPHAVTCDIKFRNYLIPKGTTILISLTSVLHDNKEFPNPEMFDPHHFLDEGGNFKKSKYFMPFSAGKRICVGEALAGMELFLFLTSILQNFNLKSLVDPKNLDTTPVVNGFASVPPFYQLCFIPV
The target in series [25] is T2, Cytochrome P450 2B6 (Homo sapiens, UniProt P20813).
T2 sequence (P20813 whole entry): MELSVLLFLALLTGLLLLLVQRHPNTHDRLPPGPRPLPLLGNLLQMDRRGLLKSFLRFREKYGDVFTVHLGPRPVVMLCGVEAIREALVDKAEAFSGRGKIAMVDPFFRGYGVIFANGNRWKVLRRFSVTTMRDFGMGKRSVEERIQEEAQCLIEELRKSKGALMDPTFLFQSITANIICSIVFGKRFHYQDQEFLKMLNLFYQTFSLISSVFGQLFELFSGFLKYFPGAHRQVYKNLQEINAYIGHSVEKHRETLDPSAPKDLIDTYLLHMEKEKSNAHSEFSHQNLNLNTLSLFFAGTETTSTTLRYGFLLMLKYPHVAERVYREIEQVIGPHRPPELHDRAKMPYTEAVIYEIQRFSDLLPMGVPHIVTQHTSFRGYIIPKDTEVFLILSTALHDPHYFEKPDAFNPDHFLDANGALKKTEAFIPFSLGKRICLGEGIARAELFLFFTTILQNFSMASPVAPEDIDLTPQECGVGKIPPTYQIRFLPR
Kind of series: Inhibition of CYP2B6 in human liver microsomes incubated in presence NADPH by LC-MS/MS analysis. A general note: Liver microsomes are vesicles of endoplasmic reticulum, rich in cytochrome P450 enzymes.

Series [26] is described as follows: Apparent permeability across basolateral to apical side in human Caco-2 cells at 10 uM measured after 120 mins by LC-MS/MS analysis. In general terms: Caco-2 monolayers are a common model of the intestinal barrier.

What is called fraction unbound is the share of the substance not bound to proteins or other matrix. As usually defined, the clearance is the volume of plasma or blood freed of the substance per unit of time. One may read the bioavailability as the share of a dose that reaches the circulation, judged against a reference dose that is usually intravenous. One may read the IC50 as the concentration that inhibits the measured activity by half. A word on the AUC: it is concentration integrated over time. Usually Cmax stands for the peak of the concentration-time curve. By Papp B→A is commonly meant how fast a substance crosses the layer from the basolateral side.

Activity calls are given as the source filed them. No cut-off for these calls is given here. Where only a bound is given, the exact number is not on record here.

Sequence of Mitogen-activated protein kinase 8 (Homo sapiens) (P45983 whole entry): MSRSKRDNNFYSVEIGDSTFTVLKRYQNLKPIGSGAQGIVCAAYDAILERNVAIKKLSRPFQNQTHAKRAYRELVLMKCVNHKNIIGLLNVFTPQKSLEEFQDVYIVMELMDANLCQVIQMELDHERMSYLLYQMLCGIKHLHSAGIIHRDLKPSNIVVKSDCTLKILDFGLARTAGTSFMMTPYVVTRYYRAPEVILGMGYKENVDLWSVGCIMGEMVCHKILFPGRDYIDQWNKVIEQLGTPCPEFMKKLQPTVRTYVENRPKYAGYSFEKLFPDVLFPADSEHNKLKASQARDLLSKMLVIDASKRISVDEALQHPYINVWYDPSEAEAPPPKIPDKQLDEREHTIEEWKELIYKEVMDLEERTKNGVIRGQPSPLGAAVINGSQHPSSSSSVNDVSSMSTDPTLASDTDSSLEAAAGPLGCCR
Sequence of Glycogen synthase kinase-3 beta (Homo sapiens) (P49841 whole entry, looked up): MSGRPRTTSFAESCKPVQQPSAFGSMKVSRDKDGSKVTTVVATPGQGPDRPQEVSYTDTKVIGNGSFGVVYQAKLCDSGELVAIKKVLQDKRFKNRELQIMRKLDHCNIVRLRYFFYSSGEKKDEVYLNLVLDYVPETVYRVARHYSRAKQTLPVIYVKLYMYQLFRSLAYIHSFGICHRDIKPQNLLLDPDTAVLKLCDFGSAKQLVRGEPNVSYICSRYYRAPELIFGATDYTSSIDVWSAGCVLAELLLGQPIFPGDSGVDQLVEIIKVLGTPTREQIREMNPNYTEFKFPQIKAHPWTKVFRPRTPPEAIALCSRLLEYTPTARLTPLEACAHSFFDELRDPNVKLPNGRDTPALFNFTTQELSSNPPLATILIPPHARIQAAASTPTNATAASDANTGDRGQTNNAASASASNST

Turning to `O=C(Nc1nc2cccc(C3CCC4(CC3)CN(C(=O)[C@@H]3CC3(F)F)C4)n2n1)C1CC1`, the figures for the fraction unbound at 4 h, 2 µM in series [1] and in series [8] were 0.259 and 0.176, respectively. Further, the Activity in series [2] is 110%; in [3], 129%; in series [7] it was 93%; in [12], 106%; in series [15], 109%. The outcome in series [4] and in series [10] was Active. Also, the values for the CLH in series [5] and in [11] were 9.1 µL/min/mg and less than 6.4 µL/min/mg, respectively. Besides, in series [6], the microsomal CLint at 1 µM was less than 9.6 µL/min/mg. Further, the half-life in [9] was 2.01 h. In [13], this compound gave a clearance of 5.73 mL/min/kg. Further, the Vdss in [14] was 1.61 L/kg.

`O=C(Nc1nc2cccc(C3CCC4(CC3)CCN(C(=O)[C@@H]3CC3(F)F)CC4)n2n1)C1CC1`: the free fraction (fraction unbound) at 4 h, 2 µM turned out to be 0.057 in series [1] and 0.056 in series [8]. Also, the bioavailability at 24 h in series [16] came out at 50.1%. The IC50 in series [17] is 0.026 µM; in series [19], 0.04 µM; in series [23] it was greater than 100 µM; in series [24], 46.8 µM; in [25], greater than 100 µM. Moreover, the result in series [4] and in series [10] was Active. Moreover, the CLH was 40.6 µL/min/mg in [5] and less than 6.4 µL/min/mg in series [11]. In [18], this compound displayed an AUC at 24 h of 18 µM·h. Further, the microsomal CLint at 1 µM in [6] was determined as 20.8 µL/min/mg. For the same compound, the Ratio IC50 was determined as 13.3 in series [20] and 8.7 in series [22]. In addition, in [21], the Cmax at 24 h was found to be 7.38 µM. Moreover, the half-life in series [9] was 4.74 h. The same compound showed a Vdss in series [14] of 0.942 L/kg. Also, the Papp B→A at 2 h, 10 µM in series [26] came to 29.1 ×10⁻⁶ cm/s.

With `O=C(Nc1nc2cccc(C3CCC4(CC3)CCN(C(=O)[C@@H]3CC3(F)F)C4)n2n1)C1CC1` (stereo partly specified), the fraction unbound at 4 h, 2 µM in series [1] turned out to be 0.112; in series [8] it was 0.088. The IC50 is 0.067 µM in [17]; 0.324 µM in [19]; greater than 100 µM in [23]; 49 µM in series [24]; greater than 100 µM in series [25]. The results for the CLH in [5] and in series [11] were 134.3 µL/min/mg and 25.6 µL/min/mg, respectively. For the same compound, in series [6], the microsomal CLint at 1 µM was found to be 46.5 µL/min/mg. Further, the values for the Ratio IC50 in series [20] and in [22] were 10.5 and 2.2, respectively. The Papp B→A at 2 h, 10 µM in series [26] was 31.2 ×10⁻⁶ cm/s.

For `O=C(Nc1nc2cccc([C@H]3CC[C@@H](NC(=O)[C@@H]4CC4(F)F)CC3)n2n1)C1CC1`, the values for the fraction unbound at 4 h, 2 µM in series [1] and in series [8] were […] and 0.085, respectively. The compound also displayed a bioavailability at 24 h in [16] of 66.6%. The 50% inhibitory concentration (IC50) in [17] is […]; in [19] it was […]; in series [23] it was […]; in series [24] it was […]; in [25], […]. The CLH in series [5] is […]; in series [11], […]. The compound also registered an AUC at 24 h in series [18] of […]. Moreover, the microsomal CLint at 1 µM in [6] was found to be […]. Besides, the Ratio IC50 in series [20] came to […]; in series [22], […]. In addition, the highest concentration (Cmax) at 24 h in series [21] stood at […]. The half-life in series [9] was […]. The Vdss in series [14] amounted to 0.501 L/kg. Besides, the Papp B→A at 2 h, 10 µM in series [26] was determined as […].
